Test results reported in patent US11642337B2, “Therapeutic agent for mental retardation or autism” (TOKYO METROPOLITAN INSTITUTE OF MEDICAL SCIENCE, priority 2017, dated 2023).

How the values were obtained:
Type in all cases: in vivo, mouse
[1] = system: GFAP-Cre; Tsc1^fl/fl (GFAP-Tsc1 cKO) mice; test: Three-chamber test in GFAP-Tsc1 cKO mice (abnormality of social behavior); details: single oral administration (40 mg/kg)
Experimental: By a three-chamber test, social interaction was investigated. This was carried out using an experiment device having three separated chambers between which a mouse can move freely. First, a cage containing a mouse (stranger 1 mouse) was placed in one chamber, and an empty cage was placed in another chamber (FIG. 2a). The subject mouse was placed in the middle chamber, and the length of time when the mouse stayed in each chamber (the chamber staying time in the figure, expressed in (s): seconds) was measured. Subsequently, the mouse (stranger 1 mouse) in the first cage was transferred to the empty cage, and another mouse (stranger 2 mouse) was placed in the cage that became empty (FIG. 2a). Thereafter, the length of time when the subject mouse stayed in the chamber of the first mouse (stranger 1 chamber) and the length of time when the subject mouse stayed in the chamber where the new mouse was staying (stranger 2 chamber) were measured and compared.
These mice were obtained by crossing of GFAP-Cre mice, which show astrocyte-specific Cre expression.
A suspension of 4 mg/ml lonafarnib or tipifarnib (using 1 w/v % CMC, 0.9 w/v % NaCl, and 5 v/v % DMSO as a vehicle) was prepared and orally administered at 40 mg/kg. A solution of 2 mg/ml pentylenetetrazol (PTZ) (using 0.9 w/v % NaCl as a vehicle) was prepared and intraperitoneally administered. […]

[2] = system: Tsc2^+/− mice; test: Contextual fear discrimination test in Tsc2+/- mice (memory impairment of tuberous sclerosis); details: 40 mg/kg orally, single administration six hours before FS, measured on the next day in the same box, vs vehicle group
Experimental: Tsc2^+/− mice were prepared by breeding/crossing according to a known method (Kobayashi, T., et al., Renal carcinogenesis, hepatic hemangiomatosis, and embryonic lethality caused by a germ-line Tsc2 mutation in mice. Cancer Res, 1999. 59(6): p. 1206-11).
A contextual fear discrimination test (Auerbach, B. D., E. K. Osterweil, and M. F. Bear, Mutations causing syndromic autism define an axis of synaptic pathophysiology. Nature, 2011. 480(7375): p. 63-8.) was carried out to measure the contextual fear memory of mice. More specifically, each mouse was placed in a cage for application of foot shock (FS), and FS was applied to the mouse. On the next day, the mouse was returned to the same cage (familiar condition), and the freeze time was measured (FIG. 1a). In order to investigate the effect of tipifarnib or lonafarnib (which may be hereinafter simply referred to as “active component”), a vehicle (carboxymethyl cellulose) and the active component were orally administered to mice, and FS was applied to each mouse 6 hours later. On the next day, the mouse was returned to the same cage to compare the freeze time. […]
Six hours before FS, lonafarnib (40 mg/kg) or tipifarnib (40 mg/kg) was orally administered to the Tsc2^+/− mice, and contextual fear memory was investigated (FIG. 1a). On the next day, the mice were returned to the box in which the FS was applied, and the freeze time was measured.

[3] = system: mice to which pentylenetetrazol was administered; test: Contextual fear discrimination test in pentylenetetrazol-treated mice (epilepsy-induced memory impairment); details: mice given pentylenetetrazol 10 times; single administration 40 mg/kg, i.p.
[4] = system: mice to which kainic acid was administered during the neonatal period; test: Three-chamber test in mice given kainic acid in the neonatal period (autism-like abnormality of social behavior); details: mice given kainic acid 1.5 mg/kg one week after birth, tested two months later; single administration 40 mg/kg, i.p.

| SMILES | staying time in the chamber of the stranger 2 [1] | freeze time (contextual fear memory) [2] | contextual fear memory (freeze time), pentylenetetrazol-induced memory impairment [3] | staying time in the chamber of the stranger 2 (time spent in chamber) [4] |
| --- | --- | --- | --- | --- |
| NC(=O)N1CCC(CC(=O)N2CCC([C@H]3c4ncc(Br)cc4CCc4cc(Cl)cc(Br)c43)CC2)CC1 [lonafarnib] | significantly longer | increases in the freeze behavior | pentylenetetrazol-induced memory impairment could also be improved | significantly longer |
| Cn1cncc1[C@@](N)(c1ccc(Cl)cc1)c1ccc2c(c1)c(-c1cccc(Cl)c1)cc(=O)n2C [tipifarnib, 6-[(R)-amino(4-chlorophenyl)(1-methyl-1H-imidazol-5-yl)methyl]-4-(3-chlorophenyl)-1-methyl-2(1H)-quinolinone] |  | increases in the freeze behavior |  |  |
